Tests used:
Format in all cases: biochemical
Pim2 kinase = Pim2 kinase (Homo sapiens, UniProt Q9P1W9); assay: Pim2 ATP depletion assay; conditions: read-out: PIM2 IC50;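 further: Luciferase-based luminescent readout of ATP remaining after PIM2 phosphorylates a BAD peptide, final 5 nM enzyme, 4 µM ATP, 10 µM peptide, 2.5% DMSO, run to roughly half ATP consumption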
Pim1 kinase = Pim1 kinase (Homo sapiens, UniProt P11309); assay: Pim1 ATP depletion assay; conditions: Pim1 ATP depletion assay; read-out: PIM1 IC50;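 further: Luciferase-luciferin luminescence readout of residual ATP after PIM1 transfers phosphate to a peptide substrate, 40 µM ATP added, reaction run to roughly half ATP consumption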
Chain of Pim1 kinase (P11309 whole entry): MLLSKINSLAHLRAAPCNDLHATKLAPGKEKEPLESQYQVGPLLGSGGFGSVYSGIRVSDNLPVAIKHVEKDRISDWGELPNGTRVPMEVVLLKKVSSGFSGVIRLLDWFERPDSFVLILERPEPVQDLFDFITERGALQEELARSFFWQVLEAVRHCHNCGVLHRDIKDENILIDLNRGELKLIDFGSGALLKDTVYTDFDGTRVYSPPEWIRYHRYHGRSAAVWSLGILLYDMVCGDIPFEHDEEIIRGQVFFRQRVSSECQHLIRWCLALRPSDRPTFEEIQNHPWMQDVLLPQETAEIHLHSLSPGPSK

Pim3 kinase = Pim3 kinase (Homo sapiens, UniProt Q86V86); assay: Pim3 ATP depletion assay; conditions: read-out: PIM3 IC50

Measured: IC50

Chain of Pim2 kinase (Q9P1W9 whole entry): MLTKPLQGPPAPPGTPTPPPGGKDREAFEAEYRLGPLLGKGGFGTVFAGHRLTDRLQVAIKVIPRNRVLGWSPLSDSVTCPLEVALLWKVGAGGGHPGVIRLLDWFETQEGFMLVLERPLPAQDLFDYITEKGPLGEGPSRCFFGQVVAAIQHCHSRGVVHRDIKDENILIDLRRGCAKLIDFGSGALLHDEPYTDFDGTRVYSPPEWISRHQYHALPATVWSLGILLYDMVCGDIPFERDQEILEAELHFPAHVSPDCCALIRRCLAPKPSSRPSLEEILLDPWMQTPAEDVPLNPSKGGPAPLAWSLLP

Nc1ccc(-c2ccccc2F)nc1C(=O)Nc1cnccc1-c1ccncc1 [Example 606, 3-amino-N-4,4′-bipyridin-3-yl-6-(2-fluorophenyl)-pyridine-2-carboxamide]
< 1000 nM: all assays above

Nc1ccc(-c2c(F)cccc2F)nc1C(=O)Nc1cnccc1-c1cc(F)nc(F)c1 [Example 607, 3-amino-N-(2′,6′-difluoro-4,4′-bipyridin-3-yl)-6-(2,6-difluorophenyl)pyridine-2-carboxamide]
< 1000 nM: all assays above

COc1cc(-c2ccncc2NC(=O)c2nc(-c3c(F)cccc3F)ccc2N)cc(N)n1 [Example 608, 3-Amino-6-(2,6-difluoro-phenyl)-pyridine-2-carboxylic acid (6′-amino-2′-methoxy-[4,4′]bi-pyridinyl-3-yl)-amide]
< 1000 nM: all assays above

COc1cncc(-c2ccncc2NC(=O)c2nc(-c3ccccc3F)ccc2N)c1 [Example 609, 3-amino-6-(2-fluorophenyl)-N-(5-methoxy-3,4′-bipyridin-3′-yl)pyridine-2-carboxamide]
< 1000 nM: all assays above

COc1cnccc1-c1ccncc1NC(=O)c1nc(-c2ccccc2F)ccc1N [Example 610, 3-amino-6-(2-fluorophenyl)-N-(3′-methoxy-4,4′-bipyridin-3-yl)pyridine-2-carboxamide]
< 1000 nM: all assays above

COc1ncccc1-c1ccncc1NC(=O)c1nc(-c2ccccc2F)ccc1N [Example 611, 3-amino-6-(2-fluorophenyl)-N-(2-methoxy-3,4′-bipyridin-3′-yl)pyridine-2-carboxamide]
< 1000 nM: all assays above

Cc1cnccc1-c1ccncc1NC(=O)c1nc(-c2ccccc2F)ccc1N [Example 613, 3-amino-6-(2-fluorophenyl)-N-(3′-methyl-4,4′-bipyridin-3-yl)pyridine-2-carboxamide]
< 1000 nM: all assays above

Nc1ccc(-c2ccccc2F)nc1C(=O)Nc1cnccc1-c1ccncc1Cl [Example 615, 3-amino-N-(3′-chloro-4,4′-bipyridin-3-yl)-6-(2-fluorophenyl)pyridine-2-carboxamide]
< 1000 nM: all assays above

Nc1ccc(-c2ccccc2F)nc1C(=O)Nc1cnccc1-c1ccncc1F [Example 616, 3-amino-N-(3′-fluoro-4,4′-bipyridin-3-yl)-6-(2-fluorophenyl)pyridine-2-carboxamide]
< 1000 nM: all assays above

Nc1cc(-c2ccncc2NC(=O)c2nc(-c3c(F)cccc3F)ccc2N)ccn1 [Example 617, 3-amino-N-(2′-amino-4,4′-bipyridin-3-yl)-6-(2,6-difluorophenyl)pyridine-2-carboxamide]
< 1000 nM: all assays above

N#Cc1cc(-c2ccncc2NC(=O)c2nc(-c3c(F)cccc3F)ccc2N)ccn1 [Example 618, 3-amino-N-(2′-cyano-4,4′-bipyridin-3-yl)-6-(2,6-difluorophenyl)pyridine-2-carboxamide]
< 1000 nM: all assays above

Cc1cc(-c2ccncc2NC(=O)c2nc(-c3c(F)cccc3F)c(F)cc2N)cc(N)n1 [Example 619, 3-amino-N-(2′-amino-6′-methyl-4,4′-bipyridin-3-yl)-6-(2,6-difluorophenyl)-5-fluoropyridine-2-carboxamide]
< 1000 nM: all assays above

CCc1cc(-c2ccncc2NC(=O)c2nc(-c3c(F)cccc3F)ccc2N)cc(N)n1 [Example 620, 3-Amino-6-(2,6-difluoro-phenyl)-pyridine-2-carboxylic acid (6′-amino-2′-ethyl-[4,4′]bipyridinyl-3-yl)-amide]
< 1000 nM: all assays above

Nc1ccc(-c2c(F)cccc2F)nc1C(=O)Nc1cnccc1-c1cc(Cl)nc(C(F)(F)F)c1 [Example 621, 3-amino-N-[2′-chloro-6′-(trifluoromethyl)-4,4′-bipyridin-3-yl]-6-(2,6-difluorophenyl)pyridine-2-carboxamide]
< 1000 nM: all assays above

COc1cc(N)nc(-c2ccncc2NC(=O)c2nc(-c3c(F)cccc3F)ccc2N)c1 [Example 622, 3-Amino-6-(2,6-difluoro-phenyl)-pyridine-2-carboxylic acid (6-amino-4-methoxy-[2,4′]bipyridinyl-3′-yl)-amide]
< 1000 nM: all assays above

Cc1cc(-c2ccncc2NC(=O)c2nc(-c3c(F)cccc3F)ccc2N)cc(N)n1 [Example 623, 3-amino-N-(2′-amino-6′-methyl-4,4′-bipyridin-3-yl)-6-(2,6-difluorophenyl)pyridine-2-carboxamide]
< 1000 nM: all assays above

Cc1cc(-c2ccncc2NC(=O)c2nc(-c3ccccc3F)ccc2N)cc(N)n1 [Example 624, 3-amino-N-(2′-amino-6′-methyl-4,4′-bipyridin-3-yl)-6-(2-fluorophenyl)pyridine-2-carboxamide]
< 1000 nM: all assays above

Nc1cncc(-c2ccncc2NC(=O)c2nc(-c3ccccc3F)ccc2N)n1 [Example 625, 3-amino-N-[4-(6-amino-pyrazin-2-yl)pyridin-3-yl]-6-(2-fluorophenyl)pyridine-2-carboxamide]
< 1000 nM: all assays above

Cc1cc(-c2ccncc2NC(=O)c2nc(-c3ccccc3F)ccc2N)nc(N)n1 [Example 626, 3-amino-N-[4-(2-amino-6-methylpyrimidin-4-yl)-pyridin-3-yl]-6-(2-fluoro-phenyl)pyridine-2-carboxamide]
< 1000 nM: all assays above

Nc1cc(-c2ccncc2NC(=O)c2nc(-c3ccccc3F)ccc2N)nc(N)n1 [Example 627, 3-amino-N-[4-(2,6-diaminopyrimidin-4-yl)pyridin-3-yl]-6-(2-fluorophenyl)pyridine-2-carboxamide]
< 1000 nM: all assays above

Nc1nccc(-c2ccncc2NC(=O)c2nc(-c3c(F)cccc3F)ccc2N)n1 [Example 628, 3-amino-N-[4-(2-aminopyrimidin-4-yl)pyridin-3-yl]-6-(2,6-difluorophenyl)pyridine-2-carboxamide]
< 1000 nM: all assays above

Nc1ccc(-c2c(F)cccc2F)nc1C(=O)Nc1cnccc1-c1cccnc1N [Example 630, 3-amino-N-(2-amino-3,4′-bipyridin-3′-yl)-6-(2,6-difluorophenyl)pyridine-2-carboxamide]
< 1000 nM: all assays above

N[C@H]1CCCN(c2ccncc2NC(=O)c2cccc(-c3nccs3)n2)C1 [Example 631, N-{4-[(3S)-3-amino-piperidin-1-yl]pyridin-3-yl}-6-(1,3-thiazol-2-yl)pyridine-2-carboxamide]
< 1000 nM: all assays above

Nc1ccc(-c2nccs2)nc1C(=O)Nc1cnccc1N1CCC[C@H](N)C1 [Example 632, 3-amino-N-{4-[(3S)-3-aminopiperidin-1-yl]pyridin-3-yl}-6-(1,3-thiazol-2-yl)-pyridine-2-carboxamide]
< 1000 nM: all assays above

Nc1cc(-c2ccncc2NC(=O)c2nc(C3CCCCC3)ccc2N)nc(C(F)(F)F)n1 [Example 633, 3-Amino-6-cyclohexyl-pyridine-2-carboxylic acid [4-(6-amino-2-trifluoro-methyl-pyrimidin-4-yl)-pyridin-3-yl]-amide]
< 1000 nM: all assays above

CCC(CC)c1ccc(N)c(C(=O)Nc2cnccc2N2CCC[C@H](N)C2)n1 [Example 634, 3-Amino-6-(1-ethyl-propyl)-pyridine-2-carboxylic acid (3-amino-3,4,5,6-tetrahydro-2H-[1,4′]bipyridinyl-3′-yl)-amide]
< 1000 nM: all assays above

N[C@H]1CCCN(c2ccncc2NC(=O)c2cccc(C3CCCCC3)n2)C1 [Example 635, 6-Cyclohexyl-pyridine-2-carboxylic acid (3-amino-3,4,5,6-tetrahydro-2H-[1,4′]bipyridinyl-3′-yl)-amide]
< 1000 nM: all assays above

Cc1ccc(N)c(C(=O)Nc2cnccc2N2CCC[C@H](N)C2)n1 [Example 637, 3-amino-N-{4-[(3S)-3-aminopiperidin-1-yl]pyridin-3-yl}-6-methylpyridine-2-carboxamide]
< 1000 nM: all assays above
